From article PMC3395220 (Journal of Medicinal Chemistry, 2012)
Read-outs that look alike come from different tables or passages of the source.

Experiments:
[1] = system: SK-MEL-2 melanoma cells; test: Subcutaneous SK-MEL-2 melanoma xenograft; type: in vivo, athymic nu/nu mice; conditions: ip 8 mg/kg q4dx3, positive control
[2] = system: OVCAR-3; type: cell-based, human; conditions: 10^Δ2-x, relative to compound 2
[3] = system: 60 cancer cell lines; test: cells; type: cell-based, human; conditions: Homo sapiens
[4] = system: ACHN; type: cell-based, human; conditions: 10^Δ2-x, relative to compound 2
[5] = system: NCI-H23; type: cell-based, human; conditions: 10^Δ2-x, relative to compound 2
[6] = system: HT29; type: cell-based, human; conditions: 10^Δ2-x, relative to compound 2
[7] = system: UACC-62; type: cell-based, human; conditions: 10^Δ2-x, relative to compound 2
[8] = system: SK-MEL28; type: cell-based, human; conditions: 10^Δ2-x, relative to compound 2
[9] = system: SNB-75; type: cell-based, human; conditions: 10^Δ2-x, relative to compound 2
[10] = system: HCT-15; type: cell-based, human; conditions: 10^Δ2-x, relative to compound 2
[11] = system: NCI-H460; type: cell-based, human; conditions: 10^Δ2-x, relative to compound 2
[12] = system: DU-145; type: cell-based, human; conditions: 10^Δ2-x, relative to compound 2
[13] = system: panel of 12 tumor cell lines implanted in mice; test: NCI hollow fiber assay; type: in vivo; conditions: for hollow fiber assay total score: 12 tumor cell lines, daily ip for four days
[14] = system: M14; type: cell-based, human; conditions: 10^Δ2-x, relative to compound 2
[15] = system: RPMI-8226; type: cell-based, human; conditions: 10^Δ2-x, relative to compound 2
[16] = system: HOP-62; type: cell-based, human; conditions: 10^Δ2-x, relative to compound 2
[17] = system: MCF7; type: cell-based, human; conditions: 10^Δ2-x, relative to compound 2
[18] = system: SF-268; type: cell-based, human; conditions: 10^Δ2-x, relative to compound 2
[19] = system: SK-MEL2; type: cell-based, human; conditions: 10^Δ2-x, relative to compound 2
[20] = system: NCI/ADR-RES; test: cells; type: cell-based, human; conditions: 10^Δ2-x, relative to compound 2
[21] = system: MDA-MB-468; type: cell-based, human; conditions: 10^Δ2-x, relative to compound 2
[22] = system: TK-10; type: cell-based, human; conditions: 10^Δ2-x, relative to compound 2
[23] = system: RXF 393; type: cell-based, human; conditions: 10^Δ2-x, relative to compound 2
[24] = system: T-47D; type: cell-based, human; conditions: 10^Δ2-x, relative to compound 2
[25] = system: EKVX; type: cell-based, human; conditions: 10^Δ2-x, relative to compound 2
[26] = system: UACC-257; type: cell-based, human; conditions: 10^Δ2-x, relative to compound 2
[27] = system: SNB-19; type: cell-based, human; conditions: 10^Δ2-x, relative to compound 2
[28] = system: HCT-116; type: cell-based, human; conditions: 10^Δ2-x, relative to compound 2
[29] = system: 786-0; type: cell-based, human; conditions: 10^Δ2-x, relative to compound 2
[30] = system: MOLT-4; type: cell-based, human; conditions: 10^Δ2-x, relative to compound 2
[31] = system: LOX IMVI; type: cell-based, human; conditions: 10^Δ2-x, relative to compound 2
[32] = system: KM12; type: cell-based, human; conditions: 10^Δ2-x, relative to compound 2
[33] = system: COLO-205 (colon), A549 (non-small cell lung) and BXCP3 (pancreas); test: cells; type: cell-based; conditions: 72 h, read-out: average GI50 (50% of growth inhibition)
[34] = system: IGROV1; type: cell-based, human; conditions: 10^Δ2-x, relative to compound 2
[35] = system: U251; type: cell-based, human; conditions: 10^Δ2-x, relative to compound 2
[36] = system: PC-3; type: cell-based, human; conditions: 10^Δ2-x, relative to compound 2
[37] = system: CCRF-CEM; type: cell-based, human; conditions: 10^Δ2-x, relative to compound 2
[38] = system: COLO 205; type: cell-based, human; conditions: 10^Δ2-x, relative to compound 2
[39] = system: HOP-92; type: cell-based, human; conditions: 10^Δ2-x, relative to compound 2
[40] = system: OVCAR-4; type: cell-based, human; conditions: 10^Δ2-x, relative to compound 2
[41] = system: SW-620; type: cell-based, human; conditions: 10^Δ2-x, relative to compound 2
[42] = system: OVCAR-5; type: cell-based, human; conditions: 10^Δ2-x, relative to compound 2
[43] = system: A498; type: cell-based, human; conditions: 10^Δ2-x, relative to compound 2
[44] = system: MDA-MB-435; type: cell-based, human; conditions: 10^Δ2-x, relative to compound 2
[45] = system: SF-295; type: cell-based, human; conditions: 10^Δ2-x, relative to compound 2
[46] = system: HL-60(TB); type: cell-based, human; conditions: 10^Δ2-x, relative to compound 2
[47] = system: OVCAR-8; type: cell-based, human; conditions: 10^Δ2-x, relative to compound 2
[48] = system: MDA-MB-231/ATCC; type: cell-based, human; conditions: 10^Δ2-x, relative to compound 2
[49] = system: NCI-H226; type: cell-based, human; conditions: 10^Δ2-x, relative to compound 2
[50] = system: BT-549; type: cell-based, human; conditions: 10^Δ2-x, relative to compound 2
[51] = system: CAKI-1; type: cell-based, human; conditions: 10^Δ2-x, relative to compound 2
[52] = system: SR; type: cell-based, human; conditions: 10^Δ2-x, relative to compound 2
[53] = system: A549/ATCCC; type: cell-based, human; conditions: 10^Δ2-x, relative to compound 2
[54] = system: HCC-2998; type: cell-based, human; conditions: 10^Δ2-x, relative to compound 2
[55] = system: SF-539; type: cell-based, human; conditions: 10^Δ2-x, relative to compound 2
[56] = system: K-562; type: cell-based, human; conditions: 10^Δ2-x, relative to compound 2
[57] = system: SK-MEL-5; type: cell-based, human; conditions: 10^Δ2-x, relative to compound 2
[58] = system: SN12C; type: cell-based, human; conditions: 10^Δ2-x, relative to compound 2
[59] = system: NCI-H522; type: cell-based, human; conditions: 10^Δ2-x, relative to compound 2
[60] = system: UO-31; type: cell-based, human; conditions: 10^Δ2-x, relative to compound 2
[61] = system: HS578T; type: cell-based, human; conditions: 10^Δ2-x, relative to compound 2
[62] = system: IGROV1; conditions: read-out: Average GI50; IGROV 1, ovarian; ref historical data at the NCI; cited from earlier work
[63] = system: A549/ATCCC; conditions: read-out: Average GI50; A549, NSCL; ref historical data at the NCI; cited from earlier work
[64] = system: MDA-MB-231/ATCC; conditions: read-out: Average GI50; MDA-MB-231, breast; ref historical data at the NCI; cited from earlier work
[65] = system: U251; conditions: read-out: Average GI50; U251, CNS; ref historical data at the NCI; cited from earlier work
[66] = system: SF-295; conditions: read-out: Average GI50; SF-295, CNS; ref historical data at the NCI; cited from earlier work
[67] = system: COLO 205; conditions: read-out: Average GI50; COLO205, colon; ref historical data at the NCI; cited from earlier work
[68] = system: SK-MEL-5; conditions: read-out: Average GI50; SK-MEL-5, melanoma; ref historical data at the NCI; cited from earlier work
[69] = system: OVCAR-8; conditions: read-out: Average GI50; OVCAR-8, ovarian; ref historical data at the NCI; cited from earlier work

COc1cccc2c1C(=O)c1c(O)c3c(c(O)c1C2=O)C[C@@](O)(C(=O)CO)C[C@@H]3O[C@H]1C[C@H](N)[C@H](O)[C@H](C)O1 [doxorubicin, reference compound]
growth of SK-MEL-2 human melanoma xenografts [1]: markedly delayed

CO[C@H](C(=O)C(C)=O)[C@@H]1Cc2cc3cc(O[C@H]4C[C@@H](O[C@H]5C[C@@H](O)[C@H](O)[C@@H](C)O5)[C@H](O)[C@@H](C)O4)c(C)c(O)c3c(O)c2C(=O)[C@H]1O[C@H]1C[C@@H](O[C@H]2C[C@@H](O[C@H]3C[C@H](O)[C@H](O)[C@@H](C)O3)[C@H](O)[C@@H](C)O2)[C@H](O)[C@@H](C)O1 [Compound 11, demycarosyl-3D-β-D-digitoxosyl-mithramycin SDK]
activity improvement factor [2]: 3.43 | GI50 ([3]; read-out: Mean GI50): 28 nM | GI50 ([3]; read-out: Mean log(GI50) (converted)): 28.2 nM | activity improvement factor [4]: 2.09 | activity improvement factor [5]: 2.79 | activity improvement factor [6]: 3.13 | activity improvement factor [7]: 0.91 | activity improvement factor [8]: 1.30 | activity improvement factor [9]: 2.75 | activity improvement factor [10]: 5.82 | activity improvement factor [11]: 1.19 | activity improvement factor [12]: 3.63 | hollow fiber assay total score [13]: 48/96 | activity improvement factor [14]: 2.75 | activity improvement factor [15]: 0.75 | activity improvement factor [16]: 3.39 | activity improvement factor [17]: 0.65 | activity improvement factor [18]: 1.66 | activity improvement factor [19]: 2.24 | activity improvement factor [20]: 4.68 | activity improvement factor [21]: 2.14 | activity improvement factor [22]: 1.50 | activity improvement factor [23]: 1.91 | activity improvement factor [24]: 1.32 | activity improvement factor [25]: 1.48 | activity improvement factor [26]: 1.17 | activity improvement factor [27]: 2.57 | activity improvement factor [28]: 1.30 | activity improvement factor [29]: 2.43 | activity improvement factor [30]: 1.76 | activity improvement factor [31]: 1.51 | activity improvement factor [32]: 2.32 | GI50 [33]: 300 to 1300 nM | activity improvement factor [34]: 3.24 | activity improvement factor [35]: 1.35 | activity improvement factor [36]: 4.37 | activity improvement factor [37]: 1.16 | activity improvement factor [38]: 1.60 | activity improvement factor [39]: 1.50 | activity improvement factor [40]: 2.88 | activity improvement factor [41]: 1.22 | activity improvement factor [42]: 2.57 | activity improvement factor [43]: 0.68 | activity improvement factor [44]: 1.70 | activity improvement factor [45]: 2.32 | activity improvement factor [46]: 3.09 | activity improvement factor [47]: 2.11 | activity improvement factor [48]: 2.00 | activity improvement factor [49]: 1.32 | activity improvement factor [50]: 1.26 | activity improvement factor [51]: 1.82 | activity improvement factor [52]: 1.22 | activity improvement factor [53]: 1.68 | activity improvement factor [54]: 4.79 | activity improvement factor [55]: 1.58 | activity improvement factor [56]: 1.26 | activity improvement factor [57]: 1.24 | activity improvement factor [58]: 1.45 | activity improvement factor [59]: 0.70 | activity improvement factor [60]: 1.30 | activity improvement factor [61]: 1.76

mithramycin [Compound 1]
GI50 [62]: 158 nM | GI50 [63]: 79 nM | GI50 [64]: 166 nM | hollow fiber assay total score [13]: 58/96 | hollow fiber assay intraperitoneal score ([13]; intraperitoneal implants): 34/48 | hollow fiber assay subcutaneous score ([13]; subcutaneous implants): 24/48 | GI50 [65]: 63 nM | GI50 [66]: 79 nM | GI50 [67]: 63 nM | GI50 [68]: 63 nM | GI50 [69]: 79 nM

CO[C@H](C(=O)[C@@H](O)[C@@H](C)O)[C@@H]1Cc2cc3cc(O[C@H]4C[C@@H](O[C@H]5C[C@@H](O)[C@H](O)[C@@H](C)O5)[C@H](O)[C@@H](C)O4)c(C)c(O)c3c(O)c2C(=O)[C@H]1O[C@H]1C[C@@H](O[C@H]2C[C@@H](O[C@H]3C[C@H](O)[C@H](O)[C@@H](C)O3)[C@H](O)[C@@H](C)O2)[C@H](O)[C@@H](C)O1 [Compound 2, demycarosyl-3D-β-D-digitoxosyl-mithramycin, reference compound]
GI50 ([3]; read-out: Mean GI50): 51 nM
